Consider one compound from patent EP2045247B1, “Compounds for the inhibition of histone deacetylase” (NatureWise Biotech & Medicals Corporation, priority 2007, dated 2009).

Assay [1] has as its system rat C6 glioma cells. The assay can be described thus: Inhibition of growth of rat C6 glioma cells (observation and cell counting). In kind it is cell-based. Particulars: 2.5, 5 and 10 µg/mL, 48 hours; cell density and cell counting (Fig. 1). How it is done: The cancer cell line, rat C6 glioma cells, was cultured in Dulbecco's modified Eagle's medium (DMEM; Gibco) supplemented with penicillin G, streptomycin sulphate, 0.5 mM of L-glutamine and 10% fetal bovine serum (FBS; Gibco) at 37 °C, 5% CO2 and 95% relative humidity. For all experiments, the cells were seeded at a density of 3×10^5 per well in 6-well plates. After 24 hours, the cells were treated with different concentrations of the compound NBM-HD-1 (i.e., the compound of formula III depicted herein). After 48 hours, the cells were observed and counted. According to the results shown in Fig. 1, NBM-HD-1 can arrest the growth of rat C6 glioma cells. After the C6 glioma cells were incubated with 2.5 µg/mL (see Fig. 1(A)-b), 5 µg/mL (see Fig. 1(A)-c) and 10 µg/mL (see Fig. 1(A)-d) of NBM-HD-1 for 48 hours, the density of the cells reduced dramatically in comparison with that of control (see Fig. 1(A)-a).

Assay [2] deals with rat C6 glioma cells. The assay can be described thus: Cell cycle analysis of C6 glioma cells, DNA content by PI staining and FACScan cytometry. In kind it is cell-based. Particulars: 0, 2.5, 5 and 10 µg/mL, 72 hours (Fig. 2). How it is done: 1×10^6 of rat C6 glioma cells were treated with various concentrations of NBM-HD-1 (0 µg/mL, 2.5 µg/mL, 5 µg/mL, and 10 µg/mL) for 72 hours. The treated cells were trysinized and collected. The cells were resuspended in 200 µL PBS and then fixed by adding 800 µL of cold 100% ethanol. The resulting cells were fixed overnight at -20[…]. The cell pellets were collected by centrifugation, resuspended in 1 mL of hypotonic buffer (0.5% Triton X-100 in PBS and 1 µg/mL RNase A), and incubated at 37 °C for 30 minutes. Then, 1 mL of PI solution (50 µg/mL) was added to the resulting cell pellets. The mixture was allowed to stand at 4[…] for 30 min. The DNA amounts of the cells were analyzed by FACScan Cytometry (Becton Dickinson) (see Fig. 2).

For assay [3], the system named is rat C6 glioma cells. The assay can be described thus: RT-PCR of cell cycle regulator mRNA in C6 glioma cells. In kind it is cell-based. The following applies: GAPDH internal control (Fig. 3). How it is done: For the rat C6 glioma cells, the cell cycle related to mRNA expression was examined by RT-PCR. The total RNAs were isolated from the treated C6 cells by using the RNeasy Mini Kit (Qiagen) according to the manufacturer's instructions. The cDNAs were produced from 500ng of total RNAs using ReverTra-Plus-TM (TOYOBO). The RT product (1µl) was amplified by PCR with primers to analyze several genes of cell cycle by using GAPDH as an internal control. According to the results of Fig. 3, NBM-HD-1 can modulate the expression of some cell cycle regulators. […] On the contrary, the expression of p21 was increased.

In assay [4] the test system is breast cancer MCF-7 cells. The assay can be described thus: Inhibition of growth and change of morphology of MCF-7 cells. In kind it is cell-based, human. As to the method: The breast cancer MCF-7 cells, were cultured in Dulbecco's modified Eagle's medium (DMEM; Gibco) supplemented with penicillin G, streptomycin sulphate, 0.5 mM of L-glutamine and 10% fetal bovine serum (FBS; Gibco) at 37 °C, 5% CO2 and 95% relative humidity. The cells were seeded at a density of 3×10^5 per well of 6-well plates. After 24 hours, the cells were treated with different concentrations of compound NBM-HD-1 and 4mM sodium butyrate being used as the positive control. The cells were observed after 48 hours and counted after 96 hours. […] In Fig. 8(A), after the cells were incubated with 2.5 µg/mL (Fig. 8(A)-b), 5 µg/mL (Fig. 8(A)-c) and 10 µg/mL (Fig. 8(A)-d) of NBM-HD-1 for 48 hours, the density of MCF-7 cells reduced dramatically in comparison with that of the control group (Fig. 8(A)-a). The morphology of the MCF-7 cells in the experimental group changed in comparison with that in the control group. […] The results of the cell counting (FIG. 8(B)) indicate that, similar to sodium butyrate, NBM-HD-1 inhibits cell growth.
MCF-7 cancer cells were seeded at a density of 3×10^5 per well in 6-well plates. After 24 hours, the cells were treated with different concentrations of compound NBM-HD-2 and 4mM sodium butyrate being used as the positive control. The cells were observed and counted after 72 hours. […] In Fig. 13(A), after the cells were incubated with 2.5 µg/mL (Fig. 13(A)-c), 5 µg/mL (Fig. 13(A)-d), 7.5 µg/mL (Fig. 13(A)-e) and 10 µg/mL (Fig. 13(A)-f) of NBM-HD-2 for 72 hours, the density of MCF-7 cells reduced dramatically in comparison with that of the control group (Fig. 13(A)-a). The morphology of the MCF-7 cells in the experimental group changed in comparison with that in the control group.
MCF-7 cancer cells were seeded at a density of 3×10^5 per well of 6-well plates. After 24 hours, the cells were treated with different concentrations of compound NBM-HD-3 and 4mM sodium butyrate, which was being used as the positive control. The cells were observed and counted after 72 hours. […] In Fig. 14(A), after the cells were incubated with 2.5 µg/mL (Fig. 14(A)-c), 5 µg/mL (Fig. 14(A)-d), 7.5 µg/mL (Fig. 14(A)-e) and 10 µg/mL (Fig. 14(A)-f) of NBM-HD-3 for 72 hours, the density of MCF-7 cells reduced dramatically in comparison with that of the control group (Fig. 14(A)-a). The morphology of the MCF-7 cells in the experimental group changed in comparison with that in the control group. […] The results of the cell counting (FIG. 14(B)) indicate that, similar to sodium butyrate, NBM-HD-3 inhibits cell growth.

Structures are written as SMILES.

With `COc1cc2c(c(OC)c1CCC(C)(C)O)C(=O)C[C@@H](c1ccc(OC)c(OC)c1C/C=C(\C)CCCC(C)(C)O)O2` [NBM-HD-1], the “growth of C6 glioma cells” value in assay [1] is on record as “can inhibit the growth of C6 glioma cells in a dose-dependent manner”. Further, the “cell cycle (DNA contents)” value in assay [2] is “cell cycle arrest on the G0/G1 phase in a dose-dependent manner”. Besides, in assay [3], the “expression of cyclinB1” value was “decrease the expression of cyclinD1 and cyclinB1 in a dose-dependent manner”; the “expression of cyclinD1” value is “decrease the expression of cyclinD1 and cyclinB1 in a dose-dependent manner”; the “expression of p21” value was “increased”. In addition, the “morphology of MCF-7 cells” value in assay [4] (2.5, 5 and 10 µg/mL, 48 hours (Fig. 8(A))) is reported as “change their morphology”. For the same compound, in assay [4] (NBM-HD-1 2.5, 5 and 10 µg/mL, sodium butyrate 4mM, observed after 48 hours, counted after 96 hours (Fig. 8)), the “growth of MCF-7 cancer cells” value is on record as “can inhibit the growth of MCF-7 cancer cells in a dose-dependent manner”.
